Assay results as given in PMC3576085 (The Journal of Biological Chemistry, 2012).

Target: T1, CBM65B (EcCel5A) ([Eubacterium] cellulosolvens, UniProt Q3LHN3)
T1 sequence (Q3LHN3 581-713): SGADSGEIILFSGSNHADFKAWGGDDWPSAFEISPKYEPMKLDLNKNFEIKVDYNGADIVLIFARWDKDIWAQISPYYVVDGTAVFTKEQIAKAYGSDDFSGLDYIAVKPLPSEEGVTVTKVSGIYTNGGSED
Experiment: ITC
Type: binding
Details: 50 mM Na-HEPES pH 7.5, 25 °C; n 1

- Ka: 2.3 (±0.2) x 10^3
Structure (SMILES): OC[C@H]1O[C@@H](O[C@H]2[C@H](O)[C@@H](O)[C@H](O[C@H]3[C@H](O)[C@@H](O)[C@H](O[C@H]4[C@H](O)[C@@H](O)[C@H](O[C@H]5[C@H](O)[C@@H](O)[C@H](O[C@H]6[C@H](O)[C@@H](O)C(O)O[C@@H]6CO)O[C@@H]5CO)O[C@@H]4CO)O[C@@H]3CO)O[C@@H]2CO)[C@H](O)[C@@H](O)[C@@H]1O (stereo partly shown) [C6, cellohexaose]
